One compound from US20160159940A1, “POLYDENDRONS” (The Univeristy of Liverpool, priority 2013, published 2016) can be followed below.

The EC50 is the concentration at which the effect is half-maximal.

The test system of one series is Caco-2 cell monolayers. Nature of the series: Transcellular permeability of Nile Red across Caco-2 cell monolayers. Type of series: in vitro ADME. The following applies: 1 hour incubation. On the procedure:
(§1) Transwells were seeded with 3.5×10^4 cells per well and propagated to a monolayer over a 21 day period, during which media in the apical and basolateral wells was changed every other day. Trans-epithelial electrical resistance (TEER) values were monitored until they were >1300Ω. 1 μM of Nile Red polydendron or 1 μM aqueous Nile Red was added to the apical chamber of 4 wells and the basolateral chamber of 4 wells to quantify transport in both Apical to Basolateral (A>B) and Basolateral to Apical (B>A) direction and sampled on an hourly basis over a 4 h time period. Apparent permeability coefficient was then determined by the amount of compound transported over time using the equation: […]
(§2) where (dQ/dt) is the amount per time (nmol·sec^−1), A is the surface area of the filter and C0 is the starting concentration of the donor chamber (1 μM).
(§3) 100 μl of each collected sample was mixed with 900 μl acetone, vortexed, sonicated for 6 minutes and centrifuged at 13300 rpm for 3 minutes. The supernatant was completely dried in a vacuum centrifuge at 30° C. until the dry solid sample was left. This was reconstituted in 150 μl acetonitrile, transferred to a 96-well black walled, flat bottomed plate and measured for fluorescence intensity excitation wavelength 480 nm, emission wavelength 560 nm using a Tecan Genios plate reader (Tecan Magellan, Austria).

Experiment in series [1]: as above
Type of series: in vitro ADME. Particulars: human, Caco-2, 1 hour incubation, 1 μM Nile Red, mean of biological triplicate. On the procedure: as §1, §2, §3

Series [2] deals with Caco-2 cells. Nature of the series: ATP assay (CellTiter-Glo) of Caco-2 cells (cytotoxicity). The class given is cell-based. On the procedure: (§4) Caco-2 cells were purchased from American Type Culture Collection (ATCC, USA) and maintained in Dulbecco's Modified Eagles Medium (DMEM) supplemented with 15% filtered sterile foetal bovine serum. Cells were incubated at 37° C. and 5% CO2 and were routinely sub-cultured every 4 days when 90% confluent. Cell count and viability was determined using a Countess automated cell counter (Invitrogen).
(§5) Caco-2 cells were seeded at a density of 1.0×10^4 cells/100 μl in DMEM supplemented with 15% FBS into each well of a 96 well plate (Nunclon, Denmark) and incubated at 37° C. and 5% CO2. Cells from 4 separate flasks of biological replicates of each cell type were used (N1-4) to improve statistical power. Media was then aspirated from […] and replaced with media containing each polydendron or aqueous Nile Red solution at an equivalent 1 μM Nile Red concentration then diluted 1:1 in media across the plate up to column 11. Column 12 served as a negative control and consisted of media and untreated cells. Following polydendron addition, the plates were incubated for 24 hours or 120 hours at 37° C., 5% CO2 prior to assessment of cytotoxicity.
Following incubation of treated plates for 24 h or 120 h, cells were equilibrated to room temperature for approximately 30 minutes. All but 20 μl of media was removed from each well and 20 μl CellTiter-Glo® (Promega, UK) reagent was added. All reagents were made fresh and in accordance with the manufacturer's instructions. Plates were put on an orbital shaker for 10 minutes to mix contents and allow for stabilisation of luminescence signal. Luminescence was then measured using a Tecan Genios plate reader (Tecan Magellan, Austria).

For series [3], the system named is Caco-2 cells. Nature of the series: MTT assay of Caco-2 cells (cytotoxicity). Type of series: cell-based. As to the method: as §4, §5
Following incubation of treated plates for 24 h or 120 h, 20 μl of 5 mg ml^−1 MTT reagent was added to each well and incubated for 2 hours. Subsequently, 100 μL MTT lysis buffer (50% N—N-Dimethylformamide in water containing 20% SDS, 2.5% glacial acetic acid and 2.5% hydrochloric acid, pH 4.7) was added to each well to lyse overnight at 37° C., 5% CO2. Following incubation the absorbance of each well was read using a Tecan Genosis plate reader at 560 nm (Tecan Magellan, Austria).
In general terms: Tetrazolium assays rely on reduction of a dye to a coloured formazan, in cell work by metabolically active cells.

[4] abbreviates: 24 hour incubation, range of concentrations investigated.
The mark [5] stands for this setting: 120 hour incubation, range of concentrations investigated.

As for `CCN(CC)c1ccc2nc3c4ccccc4c(=O)cc-3oc2c1` [aqueous Nile Red, Nile red], in the series on Caco-2 cell monolayers, the “A > B/B > A ratio” value came out at 3.7140. Moreover, the Papp A→B at 1 h, 1 μM in series [1] (read-out: Papp Apical > Basolateral) was 23.7 ×10⁻⁶ cm/s. The Papp B→A at 1 h, 1 μM in series [1] (read-out: Papp Basolateral > Apical) came to 6.38 ×10⁻⁶ cm/s. Besides, the “ATP presence compared to untreated cells” value with Caco-2 cells [2] (setting [4]) is recorded as “not affected”. The EC50 entry with Caco-2 cells [2] (120 hour incubation, FIG. 9) is “No EC50”; in the series with Caco-2 cells [2] (Homo sapiens, Caco-2, 24 hour incubation, FIG. 8, read-out: EC50), 1950 nM; in the series with Caco-2 cells [3] (120 hour incubation, FIG. 7), “No EC50”; in the series with Caco-2 cells [3] (Homo sapiens, Caco-2, 24 hour incubation, FIG. 6, read-out: EC50), 1160 nM. In addition, the “viability compared to untreated cells” value in the series on Caco-2 cells [2] (setting [5]) is “not affected”. Besides, the “metabolic turnover of Caco-2 cells compared to untreated cells” value with Caco-2 cells [3] (setting [4]) was “did not affect metabolic turnover”. For the same compound, the “viability of Caco-2 cells” value with Caco-2 cells [3] (setting [5]) is given as “did not affect the viability”.
